Source: patent US10947574B2, “Method for producing fermented carotenoid using carotenoid-producing bacteria obtained by using cobalt-containing culturing medium” (ENEOS CORPORATION, priority 2015, dated 2021)

System: Paracoccus carotinifaciens strain E-396 (FERM BP-4283)
Format: cell-based
Conditions: each trace metal added singly at final concentration of Table 1; shaking at 28° C. for 4 days
Method: Subsequently, a medium of the following composition (glucose 30 g/L, filtered corn steep liquor 30 g/L, ammonium sulfate 1.5 g/L, potassium dihydrogen phosphate 1.5 g/L, disodium hydrogen phosphate dodecahydrate 3.8 g/L, calcium chloride dihydrate 5.0 g/L, magnesium sulfate heptahydrate 0.7 g/L, iron sulfate heptahydrate 1.0 g/L, silicon-based defoaming agent 0.2 g/L) was dispensed in 7.2 ml volumes into cotton-plugged test tubes having an inner diameter of 18 mm to prepare 13 test tubes containing a test tube medium for production. The ingredients used to prepare the test tube medium for production were obtained from lots where microbial cells had been confirmed not to grow well.
The 12 trace metals indicated in Table 1 were separately prepared in 0.8 ml volumes to have their final concentrations indicated in Table 1 and then added to the above 12 test tubes for production, respectively. The remaining one test tube was supplemented with 0.8 ml of ion exchanged water.
The resulting culture solution was then inoculated in 0.05 ml volumes into the 13 types of test tube media for production and cultured under shaking at 28° C. for 4 days at 300 spm.

SMILES | OD610
O.O.O.O.O.O.[Cl][Cr]([Cl])[Cl] [Chromium (III) chloride hexahydrate] | 3
OB(O)O [Boric acid] | 4
O=[Se](=O)(O)O [Sodium selenate] | 3
O.O.[Na+].[Na+].[O]=[Mo](=[O])([O-])[O-] [Sodium molybdate dihydrate] | 4
[Na+].[Na+].[O]=[W](=[O])([O-])[O-] [Sodium tungstate] | 4
[I-].[K+] [Potassium iodide] | 4
